# According to patent publication US10308671B2, “Water-soluble derivatives of 3,5-diphenyl-diazole compounds” (Max-Planck-Gesellschaft zur Förderung, priority 2015, dated 2019):
# Like-named read-outs stand apart in the source and are kept apart here.
# Columns and labels:
# Solubility in water = type: physicochemical; settings: for solubility: water
# [1] = Water-solubility test (visual inspection); type: physicochemical
# Experimental: The solubility of each compound in the water was evaluated by following protocol. Deionized water (1 ml) was added into glass tube containing 10 mg of compound. After shaking for 10 minutes the sample was visually inspected and formation of solution or suspension was documented.
# [2] = Pharmacokinetics in rats after single oral dose: anle138b in PEG/Cremophor (Phase 1) vs sery433 in aqueous buffer (Phase 2); type: in vivo, male Sprague Dawley rats; settings: anle138b combined with excipients based on PEG/cremophor
# Experimental: In the experiment, a single oral dose of anle138b in PEG/Cremophor (“Phase 1”) and sery433 in aqueous solution (“Phase 2”) at a nominal dose of 10 mg/kg were administered to male Sprague Dawley Rats. The experiments were conducted with three rats which are identified as “1M”, “2M” and “3M”.
# This study was designed to assess the pharmacokinetics of anle138b and sery433 in male Sprague Dawley rats following single oral administration of anle138b (Phase 1) and sery433 (Phase 2). During Phase 1 and Phase 2 animals received each test compound, appropriately formulated, on one of two separate dose occasions in a cross over design. The dose level was 10 mg/kg for both compounds. The amount of sery433 was not corrected to the amount of anle138b which is present in the prodrug, so that due to the higher molecular weight of sery433 actually a lower amount of active agent was administered.
# Phase 1: three naïve male CD rats were dosed orally with anle138b at a target dose level of 10 mg/kg.
# Phase 2: one week later (wash out period), sery433 at a target dose of 10 mg/kg was administered orally to the same animals.
# During each phase an individual serial plasma profile was drawn from each animal over a period of 24 hours after dosing.
# The vehicle was prepared by weighing Cremophor RH40 (45% of final volume); PEG400 (35% of final volume) and Capryol 90 (20% of final volume). […]
SMILES,solubility (in words) (Solubility in water),"Result of solubility test ([1]; 10 mg compound in 1 ml deionized water, shaking 10 minutes, visual inspection)","solubility at 10 min ([1]; deionized water, water, thermodynamic from solid, read-out: amount soluble in water) [µg/mL]",solubility (Solubility in water; read-out: solubility in water) [µM],"solubility (Solubility in water; restates 0.2 μM, read-out: water-solubility) [µg/mL]",anle138b exposure relative to the exposure reached by administration of sery433 [2] [%]
"CN(C)c1ccc(-c2cc(-c3cccc(Br)c3)[nH]n2)cc1 [Anle253b, 5-(3-Bromophenyl)-3-(4-dimethylaminophenyl)-1H-pyrazole]",even less soluble than anle138b,,,,,
"Brc1cccc(-c2cc(-c3ccc4c(c3)OCO4)n[nH]2)c1 [anle138b, 5-(3-Bromophenyl)-3-(3,4-methylenedioxyphenyl)-1H-pyrazole]",,insoluble,0.0686,0.2,0.07,25
